This assay has as its target T1, platelet P2Y1 receptor (Homo sapiens, UniProt P47900).
T1 construct: expressed in transfected cells
As to the kind of experiment: P2Y1 receptor binding assay ([β-33P]-2-thiomethyl ADP). As to conditions: binding of 0.3 nM [β-33P]-2-thiomethyl ADP, hP2Y1 expressing 132N1 cell membrane, 25° C., 60 minutes. The protocol:
Conducting P2Y, Receptor Binding Assay
[β−^33P]-2-thiomethyl ADP (2100 Ci/mmol) was purchased from PerkinElmer, Protease Inhibitors Complete, EDTA-free, was purchased from Roche, and ADP (Adenosine diphosphate), MRS2179, and 2-thiomethy ADP (2-Me-S-ADP) were purchased from Sigma Chemical Co.
Binding of 0.3 nM [β-^33P]-2-thiomethyl ADP to platelet P2Y1 receptor in 132N1 cell membrane was carried out in triplicate at 25° C. with 96 well plate (Corning, 3365). Nonspecific binding was defined as binding in the presence of 1 μM of 2-Me-S-ADP. One […] of dimethyl sulfoxide (DMSO) or 1 μL of DMSO (Sigma-Aldrich, 472301) containing a test compound diluted to final assay concentrations of 0.1 nM to 1 mM were placed into each well of a Corning 96-well plate. A volume of 60 μL of buffer: 50 mM Tris pH 7.5 (Sigma, T-2194), 1 mM EDTA (Gibco, 15575-038) and 100 mM NaCl (Gibco, 200740-011) containing 0.3 nM [β-^33P]-2-thiomethyl ADP 40 μL of hP2Y1 expressing 132N1 cell membrane prep was added to each well. After incubation on shaker for 60 minutes, The contents of the wells are filtered and washed 8 times with Tomtec Cell Harvester through UniFilter 96, GF/B plates (PerkinElmer, 6005177) Forty five microliters […] Scintillation cocktail (Ultima-Flo-M) was added into each well and plates counted on a Trilux Microbeta Counter.
• 1. Add 1 μL DMSO or compounds into the wells according to the protocol. • 2. Add 60 μL incubation buffer with [β-^33P]-2-thiomethyl ADP into each well. • 3. Add 40 μL hP2Y1 expressing 132N1 cell membrance prep. Incubate 60 minutes on top of the shaker (IKA Shutter MTS4). • 4. Filter and wash 8× with Tomtec Cell Harvester through UniFilter GF/B plates (PerkinElmer, 6005177). • 5. Add 45 μL scintillation cocktail into each well and plates counted on a Trilux Microbeta Counter.

Where only a bound is given, the exact number is not on record here.

T1 sequence (P47900 whole entry): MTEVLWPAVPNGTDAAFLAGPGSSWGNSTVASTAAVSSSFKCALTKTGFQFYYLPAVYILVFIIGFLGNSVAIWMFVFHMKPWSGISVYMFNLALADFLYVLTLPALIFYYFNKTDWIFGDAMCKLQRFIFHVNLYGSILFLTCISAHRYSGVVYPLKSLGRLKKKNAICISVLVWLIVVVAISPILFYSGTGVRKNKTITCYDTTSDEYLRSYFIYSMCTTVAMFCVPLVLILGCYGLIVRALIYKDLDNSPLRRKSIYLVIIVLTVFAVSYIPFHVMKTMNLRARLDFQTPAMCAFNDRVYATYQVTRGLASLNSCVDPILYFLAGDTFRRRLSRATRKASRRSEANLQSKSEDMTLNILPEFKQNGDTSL

On to `Cc1cc(Oc2ccccc2NC(=O)Nc2ccc(C3CCCC3)cc2)n(-c2ccccc2Cl)n1` [Example 124, 1-(2-(1-(2-chlorophenyl)-3-methyl-1H-pyrazol-5-yloxy)phenyl)-3-(4-cyclopentylphenyl)urea], for which the IC50 amounted to 32 nM. The figure for `Cc1cc(Oc2ccccc2NC(=O)Nc2ccc(C3CC3)cc2)n(-c2ccccc2Cl)n1` [Example 123, 1-(2-(1-(2-chlorophenyl)-3-methyl-1H-pyrazol-5-yloxy)phenyl)-3-(4-cyclopropylphenyl)urea] is 121 nM. For the compound `Cc1cc(Oc2ccccc2NC(=O)Nc2ccc(OC(F)(F)F)cc2)n(-c2ccccc2C)n1` [Example 1, 1-[2-(5-Methyl-2-o-tolyl-2H-pyrazol-3-yloxy)-phenyl]-3-(4-trifluoromethoxy-phenyl)-urea], the half-inhibitory concentration (IC50) came out at 152 nM. The figure for `Cc1cc(Oc2cc(C)c(F)cc2NC(=O)Nc2ccc(OC(F)(F)F)cc2)n(-c2ccccc2)n1` [Example 30] is 1240 nM; for `Cc1cc(Oc2ccccc2NC(=O)Nc2ccc(C3CCS(=O)(=O)CC3)cc2)n(-c2ccccc2Cl)n1` [Example 129] it is above 10000 nM.

For `CCc1ccccc1-n1nc(C)cc1Oc1ccccc1NC(=O)Nc1ccc(OC(F)(F)F)cc1Cl` [Example 94, 1-(2-chloro-4-(trifluoromethoxy)phenyl)-3-(2-(1-(2-ethylphenyl)-3-methyl-1H-pyrazol-5-yloxy)phenyl)urea], the IC50 amounted to 8780 nM. `Cc1cc(Oc2ccccc2NC(=O)Nc2ccc(OC(F)(F)F)cc2)n(-c2ccc(Cl)cc2)n1` [Example 13] came in with an IC50 of 246 nM. The value for `Cc1ccc(C)c(NC(=O)Nc2ccccc2Oc2cc(C)nn2-c2ccccc2)c1` [Example 79] was above 10000 nM; that for `Cc1cc(Oc2ccccc2NC(=O)Nc2cccc(C#N)c2)n(-c2ccccc2)n1` [Example 46] was above 10000 nM. The value for `Cc1cccc(-n2nc(C)cc2Oc2ccccc2NC(=O)Nc2ccc(OC(F)(F)F)cc2)c1` [Example 5] was 459 nM; that for `CC(=O)c1ccc(NC(=O)Nc2ccccc2Oc2cc(C)nn2-c2ccccc2Cl)cc1` [Example 118, 1-(4-acetylphenyl)-3-(2-(1-(2-chlorophenyl)-3-methyl-1H-pyrazol-5-yloxy)phenyl)urea] was above 3330 nM; that for `CCc1ccccc1-n1nc(C)cc1Oc1ccccc1NC(=O)Nc1ccc(C(F)(F)F)cc1` [Example 107, 1-(2-(1-(2-ethylphenyl)-3-methyl-1H-pyrazol-5-yloxy)phenyl)-3-(4-(trifluoromethyl)phenyl)urea] was 60 nM. The figure for `COc1cc(NC(=O)Nc2ccccc2Oc2cc(C)nn2-c2ccccc2)cc(OC)c1` [Example 80] is above 10000 nM.

As to `Cc1cc(Oc2ccc(C#N)cc2NC(=O)Nc2ccc(OC(F)(F)F)cc2)n(-c2ccccc2)n1` [Example 32], the IC50 was above 10000 nM. The value for `Cc1cc(Oc2ccccc2NC(=O)Nc2ccc(OC(F)(F)F)cc2)n(-c2cccc(Cl)c2)n1` [Example 7] was 122 nM. Consider `Cc1cc(Oc2ccccc2NC(=O)Nc2ccc(OC(F)(F)F)cc2)n(-c2cccc(Cl)c2F)n1` [Example 88, 1-{2-[2-(3-Chloro-2-fluoro-phenyl)-5-methyl-2H-pyrazol-3-yloxy]-phenyl}-3-(4-trifluoromethoxy-phenyl)-urea], for which the half-maximal inhibitory concentration (IC50) was 149 nM. The value for `Cc1cc(Oc2ccccc2NC(=O)Nc2cc(F)ccc2C)n(-c2ccccc2)n1` [Example 48] was above 10000 nM; that for `CCc1ccccc1-n1nc(C)cc1Oc1ccccc1NC(=O)Nc1ccc(Cl)cc1` [Example 111, 1-(4-chlorophenyl)-3-(2-(1-(2-ethylphenyl)-3-methyl-1H-pyrazol-5-yloxy)phenyl)urea] was 133 nM. The value for `CCc1ccccc1-n1nc(C)cc1Oc1ccccc1NC(=O)Nc1ccc(-c2cnco2)cc1` [Example 102, 1-(2-(1-(2-ethylphenyl)-3-methyl-1H-pyrazol-5-yloxy)phenyl)-3-(4-(oxazol-5-yl)phenyl)urea] was 1190 nM.

The IC50 is the point on the concentration scale where inhibition reaches its midpoint. Higher therefore signals a need for much substance.

The record behind these values is patent US20080269293A1, “PYRAZOLE DERIVATIVES AS ANTI-PLATELET AND ANTI-THROMBOTIC AGENTS” (Pfizer Inc., priority 2006, published 2008).
